What follows are compounds tested against T1, c-kit autophosphorylation (Phospho c-Kit Tyr721) in HMC 1.1 (exon 11/13) cells, V654A (Homo sapiens, UniProt P10721, V560G/V654A) (assay: pKIT Meso Scale Discovery (MSD) assay, inhibition of autophosphorylation of KIT, HMC1.1_V654A). Conditions: Table 1, cell line not named for Table 1, b1056 names pKIT HMC1.1_V654A, read-out: Code (IC50 for inhibition of autophosphorylation of KIT, pKIT MSD assay).
T1 construct: endogenous in cells; host or cells: HMC 1.1 (exon 11/13) cells
T1 sequence (P10721 26-976 V560G/V654A): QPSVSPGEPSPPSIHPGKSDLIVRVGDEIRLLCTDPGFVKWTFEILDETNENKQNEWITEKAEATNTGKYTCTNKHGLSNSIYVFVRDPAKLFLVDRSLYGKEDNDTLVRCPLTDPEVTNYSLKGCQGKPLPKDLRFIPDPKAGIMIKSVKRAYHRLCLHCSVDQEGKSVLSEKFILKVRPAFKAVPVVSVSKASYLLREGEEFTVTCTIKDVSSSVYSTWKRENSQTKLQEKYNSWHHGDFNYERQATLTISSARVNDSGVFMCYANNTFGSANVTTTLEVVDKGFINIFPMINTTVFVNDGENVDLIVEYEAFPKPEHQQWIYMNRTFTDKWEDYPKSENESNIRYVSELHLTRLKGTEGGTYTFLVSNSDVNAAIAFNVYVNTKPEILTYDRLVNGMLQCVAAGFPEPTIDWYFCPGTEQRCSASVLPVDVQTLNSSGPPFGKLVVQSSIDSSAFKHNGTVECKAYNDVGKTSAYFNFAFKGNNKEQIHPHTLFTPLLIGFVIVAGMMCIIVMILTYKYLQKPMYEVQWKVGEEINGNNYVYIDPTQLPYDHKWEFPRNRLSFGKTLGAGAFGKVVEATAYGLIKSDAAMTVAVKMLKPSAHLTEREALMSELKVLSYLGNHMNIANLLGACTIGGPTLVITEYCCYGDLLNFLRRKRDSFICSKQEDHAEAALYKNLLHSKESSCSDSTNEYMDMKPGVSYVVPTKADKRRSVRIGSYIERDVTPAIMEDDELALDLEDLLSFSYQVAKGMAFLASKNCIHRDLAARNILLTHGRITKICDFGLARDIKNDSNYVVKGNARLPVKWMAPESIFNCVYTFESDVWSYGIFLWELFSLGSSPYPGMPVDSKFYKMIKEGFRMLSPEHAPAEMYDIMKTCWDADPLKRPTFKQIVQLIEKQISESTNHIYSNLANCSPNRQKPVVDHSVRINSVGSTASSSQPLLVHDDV
Type: cell-based
Source text: In this MSD assay, specific capture antibodies for the analytes were coated in arrays in each well of a 96-well carbon electrode plate surface. The detection system used SULFO-TAG™ labels that emit light upon electrochemical stimulation initiated at the electrode surfaces of the […] and MULTI-SPOT® plates. The electrical stimulation was decoupled from the output signal, which was light and generated assays with minimal background. The goal of this assay was to assess the percent inhibition of autophosphorylation of c-kit in cells when treated with compounds of the disclosure in a dose-dependent manner.
HMC1.1 cells were maintained in IMDM media supplemented with 20% Calf Serum with Iron and 100 units/mL Penicillin-Streptomycin and grown in a 37° C. humidified tissue culture incubator. HMC1.1 cells were passaged by 1:5 dilution into fresh IMDM media supplemented with 20% Calf Serum with Iron and 100 units/mL Penicillin-Streptomycin every 5-7 days and were discarded after 20 passages.
Seeding was performed as follows: HMC cells were brought to 1×10^6 cells/mL in fresh phenol red free, serum-free, iron-free IDM media with Pen/Strep; cells were seeded/plated into respective U-bottom plate by dispensing 50 μL/well (50,000 cells) using the Multidrop, and covered and incubated cells at 37° C. in a humidified tissue culture incubator for 4 hours (starvation).
Dosing was performed as follows: The compound mother plate was prepared by adding 16 μL of compound to 24 μL of DMSO to row A, odd-numbered columns of screen matrix plate. […] Intermediate plates were prepared in V-bottom plates by dispensing 98 μL of phenol red free, serum free IMDM media with Pen/Strep into all wells. 2 μL DMSO or 2 μL 10 mM staurosporine was added to appropriate control wells. At the end of four hours, the Bravo protocol 10 cpds vertical dose MSD 2 U-plates 96-well was used to: add 2 μL from the compound plate to the intermediate plate and dose cells with 7 μL from the intermediate plate. The cells were covered and incubated at 37° C. in a humidified tissue culture incubator for 90 min. The complete lysis buffer was prepared with AlphaLISA 5× Lysis Buffer supplemented with 1× protease inhibitor cocktail and kept on ice. The cells were pelleted by centrifuging plate at 2500×g for 5 min, 4° C. and media removed. Complete lysis buffer was added (14 μL/well). The cells were covered and shaken at 4° C. on a plate shaker at 600 rpm for 30 min and kept cold
The MSD protocol was preformed as follows: Tris Wash Buffer (2L) was prepared by diluting 10× stock of Tris Wash Buffer to 1× in water. Blocking Solution was prepared by dissolving 600 mg Blocker A in 20 mL 1× Trish Wash Buffer (per plate). The Antibody Dilution Buffer was prepared by mixing 1 mL Blocking solution and 2 mL 1× Trish Wash Buffer (per plate) and kept on ice. Blocking Solution was added (150 μL/well) to each MSD plate using a multichannel repeater pipette. The plate was covered and incubated at room temperature on a plate shaker at 700 rpm for hr. The Bio Tek protocol RL-96w-wash-MSD_stacker_fromC was used to wash plates 3× with 150 μL/well. Cells were pelleted by centrifuging lysate plates at 2500×g for 5 mins. The Bravo protocol was used (transfer 25 ul supernatants from V-96 to assay plate) to transfer 25 μL sample lysate per well to each MSD plate. The plates were covered and incubated at room temperature on a plate shaker at 700 rpm for hr. The Bio Tek protocol RL-96w-wash-MSD_stacker_fromC was used to wash plates 3× with 150 μL/well. The Detection Antibody Solution was prepared by diluting the 60 μL of the 50× antibody stock in 2.94 mL of the Antibody Dilution Buffer (per plate) and kept on ice. 25 μL/well of detection antibody solution was added to each MSD plate. The plates were covered and incubated at room temperature on a plate shaker at 700 rpm for 1 hr. The Read Buffer was prepared by diluting 5 mL of 4× stock of Read Buffer to 1× in 15 mL water (per plate).

Compound | IC50
Cn1cc(-c2cnc(Nc3cc(N)nc(C(F)F)n3)cc2OC(F)F)cn1 [Compound 69, N4-(4-(difluoromethoxy)-5-(1-methyl-1H-pyrazol-4-yl)pyridin-2-yl)-2-(difluoromethyl)pyrimidine-4,6-diamine] | 10 to 40 nM
COc1cc(Nc2cc(N)nc(C(F)F)n2)ncc1-c1cnn(CCN2CCC2)c1 [Compound 137, N4-(5-(1-(2-(azetidin-1-yl)ethyl)-1H-pyrazol-4-yl)-4-methoxypyridin-2-yl)-2-(difluoromethyl)pyrimidine-4,6-diamine] | 10 to 40 nM
CNc1cc(Nc2cc(N)nc(C(F)F)n2)ncc1C(=O)NC(C)C [Compound 29, 6-((6-amino-2-(difluoromethyl)pyrimidin-4-yl)amino)-N-isopropyl-4-(methylamino)nicotinamide] | < 10 nM
COc1cc(Nc2cc(N)nc(C(F)F)n2)ncc1-c1cnn(CC(C)O)c1 (stereo not shown) [Compound 85, 1-(4-(6-((6-amino-2-(difluoromethyl)pyrimidin-4-yl)amino)-4-methoxypyridin-3-yl)-1H-pyrazol-1-yl)propan-2-ol] | 10 to 40 nM
6-((6-amino-4-(difluoromethyl)pyridin-2-yl)amino)-4-(((1S,2R)-2-fluorocyclopropyl)amino)-N-methylnicotinamide [Compound 45] | 10 to 40 nM
Nc1cc(Nc2cc(NC3CC3)c(C(=O)NCc3ncco3)cn2)nc(C(F)F)n1 [Compound 135, 6-((6-amino-2-(difluoromethyl)pyrimidin-4-yl)amino)-4-(cyclopropylamino)-N-(oxazol-2-ylmethyl)nicotinamide] | < 10 nM
COc1cc(Nc2cc(N)nc(C(F)F)n2)ncc1-c1cnn([C@@H]2CCNC2)c1 (single isomer, unassigned) [Compound 100, (R)-2-(difluoromethyl)-N4-(4-methoxy-5-(1-(pyrrolidin-3-yl)-1H-pyrazol-4-yl)pyridin-2-yl)pyrimidine-4,6-diamine or (S)-2-(difluoromethyl)-N4-(4-methoxy-5-(1-(pyrrolidin-3-yl)-1H-pyrazol-4-yl)pyridin-2-yl)pyrimidine-4,6-diamine] | 10 to 40 nM
Nc1cc(Nc2cc(OC3CC3)c(-c3cnn(C4COC4)c3)cn2)nc(C(F)F)n1 [Compound 133, N4-(4-cyclopropoxy-5-(1-(oxetan-3-yl)-1H-pyrazol-4-yl)pyridin-2-yl)-2-(difluoromethyl)pyrimidine-4,6-diamine] | < 10 nM
Nc1cc(Nc2cc(NC3CC3)c(C(=O)NCc3cocn3)cn2)nc(C(F)F)n1 [Compound 134, 6-((6-amino-2-(difluoromethyl)pyrimidin-4-yl)amino)-4-(cyclopropylamino)-N-(oxazol-4-ylmethyl)nicotinamide] | < 10 nM
COc1cc(Nc2cc(N)nc(C(F)F)n2)ncc1-c1cnn(C[C@H]2CCN2C)c1 (single isomer, unassigned) [Compound 138, (R)-2-(difluoromethyl)-N4-(4-methoxy-5-(1-((1-methylazetidin-2-yl)methyl)-1H-pyrazol-4-yl)pyridin-2-yl)pyrimidine-4,6-diamine or (S)-2-(difluoromethyl)-N4-(4-methoxy-5-(1-((1-methylazetidin-2-yl)methyl)-1H-pyrazol-4-yl)pyridin-2-yl)pyrimidine-4,6-diamine] | < 10 nM
CCNC(=O)c1cnc(Nc2cc(N)nc(C(F)F)n2)cc1NC1CC1 [Compound 38, 6-((6-amino-2-(difluoromethyl)pyrimidin-4-yl)amino)-4-(cyclopropylamino)-N-ethylnicotinamide] | < 10 nM
CCNc1cc(Nc2cc(N)nc(C(F)F)n2)ncc1C(=O)NCc1ccccn1 [Compound 131, 6-((6-amino-2-(difluoromethyl)pyrimidin-4-yl)amino)-4-(ethylamino)-N-(pyridin-2-ylmethyl)nicotinamide] | < 10 nM
COc1cc(Nc2cc(N)nc(C(F)F)n2)ncc1-c1cnn(C[C@@H]2CCN2C)c1 (single isomer, unassigned) [Compound 139, (S)-2-(difluoromethyl)-N4-(4-methoxy-5-(1-((1-methylazetidin-2-yl)methyl)-1H-pyrazol-4-yl)pyridin-2-yl)pyrimidine-4,6-diamine or (R)-2-(difluoromethyl)-N4-(4-methoxy-5-(1-((1-methylazetidin-2-yl)methyl)-1H-pyrazol-4-yl)pyridin-2-yl)pyrimidine-4,6-diamine] | < 10 nM
6-((6-amino-4-(difluoromethyl)pyridin-2-yl)amino)-4-(((1R,2S)-2-fluorocyclopropyl)amino)-N-methylnicotinamide [Compound 44] | 10 to 40 nM
COc1cc(Nc2cc(N)nc(C(F)F)n2)ncc1-c1cnn(C2CCNC2)c1 (stereo not shown) [Compound 97, 2-(difluoromethyl)-N4-(4-methoxy-5-(1-(pyrrolidin-3-yl)-1H-pyrazol-4-yl)pyridin-2-yl)pyrimidine-4,6-diamine] | 10 to 40 nM

The remaining lines, values ahead:

IC50 | Compound
< 10 nM | Nc1cc(Nc2cc(OC3CC3)c(-c3cnn([C@@H]4CCNC4)c3)cn2)nc(C(F)F)n1 (single isomer, unassigned) [Compound 160, (R)-N4-(4-cyclopropoxy-5-(1-(pyrrolidin-3-yl)-1H-pyrazol-4-yl)pyridin-2-yl)-2-(difluoromethyl)pyrimidine-4,6-diamine or (S)-N4-(4-cyclopropoxy-5-(1-(pyrrolidin-3-yl)-1H-pyrazol-4-yl)pyridin-2-yl)-2-(difluoromethyl)pyrimidine-4,6-diamine]
< 10 nM | CC(C)(N)Cn1cc(-c2cnc(Nc3cc(N)nc(C(F)F)n3)cc2OC2CC2)cn1 [Compound 169, N4-(5-(1-(2-amino-2-methylpropyl)-1H-pyrazol-4-yl)-4-cyclopropoxypyridin-2-yl)-2-(difluoromethyl)pyrimidine-4,6-diamine]
< 10 nM | C[C@@H](CF)Nc1cc(Nc2cc(N)nc(C(F)F)n2)ncc1C(=O)NCc1cocn1 [Compound 176, (S)-6-((6-amino-2-(difluoromethyl)pyrimidin-4-yl)amino)-4-((1-fluoropropan-2-yl)amino)-N-(oxazol-4-ylmethyl)nicotinamide]
10 to 40 nM | Cn1cc(-c2cnc(Nc3cc(N)nc(C(F)F)n3)cc2OC[C@H]2C[C@H](O)C2)cn1 [Compound 144, (1r,3r)-3-(((2-((6-amino-2-(difluoromethyl)pyrimidin-4-yl)amino)-5-(1-methyl-1H-pyrazol-4-yl)pyridin-4-yl)oxy)methyl)cyclobutan-1-ol]
< 10 nM | COc1cc(Nc2cc(N)nc(C(F)F)n2)ncc1-c1cnn(CCN(C)CC(F)(F)F)c1 [Compound 199, 2-(difluoromethyl)-N4-(4-methoxy-5-(1-(2-(methyl(2,2,2-trifluoroethyl)amino)ethyl)-1H-pyrazol-4-yl)pyridin-2-yl)pyrimidine-4,6-diamine]
< 10 nM | C[C@@H](CF)Nc1cc(Nc2cc(N)nc(C(F)F)n2)ncc1C(=O)NCc1ccccn1 [Compound 186, (S)-6-((6-amino-2-(difluoromethyl)pyrimidin-4-yl)amino)-4-((1-fluoropropan-2-yl)amino)-N-(pyridin-2-ylmethyl)nicotinamide]
< 10 nM | CN(C)CCn1cc(-c2cnc(Nc3cc(N)nc(C(F)F)n3)cc2OC(F)F)cn1 [Compound 179, N4-(4-(difluoromethoxy)-5-(1-(2-(dimethylamino)ethyl)-1H-pyrazol-4-yl)pyridin-2-yl)-2-(difluoromethyl)pyrimidine-4,6-diamine]

Reference: US20250270190A1, “KIT INHIBITORS” (BLUEPRINT MEDICINES CORPORATION, priority 2022, published 2025)
